In ChEMBL document CHEMBL5032500, “Adenosine A2AR/A1R Antagonists Enabling Additional H3R Antagonism for the Treatment of Parkinson's Disease” (J Med Chem, 2021):

What was measured:
Adenosine receptor A1 [1] = molecular target: T1, Adenosine receptor A1 (Homo sapiens, UniProt P30542); experiment: Displacement of [3H]CCPA from human recombinant adenosine A1 receptor expressed in CHO cells by liquid scintillation counting analysis; type: cell-based
T1 sequence (P30542 whole entry): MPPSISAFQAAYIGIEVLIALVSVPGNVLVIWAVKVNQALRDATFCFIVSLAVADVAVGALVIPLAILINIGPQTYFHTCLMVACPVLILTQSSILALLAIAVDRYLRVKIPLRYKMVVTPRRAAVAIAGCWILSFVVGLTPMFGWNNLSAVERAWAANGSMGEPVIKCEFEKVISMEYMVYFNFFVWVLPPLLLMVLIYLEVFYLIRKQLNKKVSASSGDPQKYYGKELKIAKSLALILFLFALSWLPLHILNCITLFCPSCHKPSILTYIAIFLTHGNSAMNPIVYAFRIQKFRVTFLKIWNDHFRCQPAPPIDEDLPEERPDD

Adenosine receptor A2a [2] = molecular target: T2, Adenosine receptor A2a (Homo sapiens, UniProt P29274); experiment: Displacement of [3H]MSX-2 from human recombinant adenosine A2A receptor expressed in CHO cells by liquid scintillation counting analysis; type: cell-based
T2 sequence (P29274 whole entry): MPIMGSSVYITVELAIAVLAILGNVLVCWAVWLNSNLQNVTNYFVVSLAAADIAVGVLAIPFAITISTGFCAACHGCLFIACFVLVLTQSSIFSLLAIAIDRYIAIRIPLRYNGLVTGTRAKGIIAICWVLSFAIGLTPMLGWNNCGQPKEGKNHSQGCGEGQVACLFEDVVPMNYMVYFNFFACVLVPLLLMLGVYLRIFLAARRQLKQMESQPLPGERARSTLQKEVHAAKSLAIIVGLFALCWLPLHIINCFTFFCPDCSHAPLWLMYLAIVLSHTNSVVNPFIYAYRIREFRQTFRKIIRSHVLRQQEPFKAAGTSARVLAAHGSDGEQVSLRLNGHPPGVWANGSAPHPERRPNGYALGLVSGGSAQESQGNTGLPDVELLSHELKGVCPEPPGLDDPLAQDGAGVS

Adenosine receptor A3 = molecular target: T3, Adenosine receptor A3 (Homo sapiens, UniProt P0DMS8); experiment: Displacement of [3H]PSB-11 from human recombinant adenosine A3 receptor expressed in CHO cells by liquid scintillation counting analysis; type: cell-based
T3 sequence (P0DMS8 whole entry): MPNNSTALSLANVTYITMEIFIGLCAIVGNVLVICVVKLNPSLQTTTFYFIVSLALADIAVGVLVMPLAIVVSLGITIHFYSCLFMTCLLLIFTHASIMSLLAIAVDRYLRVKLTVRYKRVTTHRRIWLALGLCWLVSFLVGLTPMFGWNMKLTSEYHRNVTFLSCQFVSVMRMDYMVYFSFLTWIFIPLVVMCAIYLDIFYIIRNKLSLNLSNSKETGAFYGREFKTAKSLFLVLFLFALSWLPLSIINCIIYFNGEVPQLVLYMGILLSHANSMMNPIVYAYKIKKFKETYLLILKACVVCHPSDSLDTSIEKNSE

Adenosine receptor A2b [3] = molecular target: T4, Adenosine receptor A2b (Homo sapiens, UniProt P29275); experiment: Displacement of [3H]PSB-603 from human recombinant adenosine A2B receptor expressed in CHO cells by liquid scintillation counting analysis; type: cell-based
T4 sequence (P29275 whole entry): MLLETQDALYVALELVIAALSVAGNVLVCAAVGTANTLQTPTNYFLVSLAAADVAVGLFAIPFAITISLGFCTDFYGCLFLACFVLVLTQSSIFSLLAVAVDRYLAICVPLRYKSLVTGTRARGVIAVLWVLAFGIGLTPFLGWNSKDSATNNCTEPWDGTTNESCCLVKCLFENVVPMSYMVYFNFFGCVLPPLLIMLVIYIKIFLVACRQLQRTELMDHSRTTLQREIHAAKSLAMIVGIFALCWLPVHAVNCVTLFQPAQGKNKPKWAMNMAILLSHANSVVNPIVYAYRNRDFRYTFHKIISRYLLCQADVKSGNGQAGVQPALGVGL

Histamine H3 receptor = Histamine H3 receptor (Homo sapiens, UniProt Q9Y5N1); experiment: Displacement of [3H] N-alpha methylhistamine from human recombinant histamine H3 receptor expressed in HEK293 cells measured after 90 mins; type: cell-based
Histamine H3 receptor, sequence (Q9Y5N1 whole entry): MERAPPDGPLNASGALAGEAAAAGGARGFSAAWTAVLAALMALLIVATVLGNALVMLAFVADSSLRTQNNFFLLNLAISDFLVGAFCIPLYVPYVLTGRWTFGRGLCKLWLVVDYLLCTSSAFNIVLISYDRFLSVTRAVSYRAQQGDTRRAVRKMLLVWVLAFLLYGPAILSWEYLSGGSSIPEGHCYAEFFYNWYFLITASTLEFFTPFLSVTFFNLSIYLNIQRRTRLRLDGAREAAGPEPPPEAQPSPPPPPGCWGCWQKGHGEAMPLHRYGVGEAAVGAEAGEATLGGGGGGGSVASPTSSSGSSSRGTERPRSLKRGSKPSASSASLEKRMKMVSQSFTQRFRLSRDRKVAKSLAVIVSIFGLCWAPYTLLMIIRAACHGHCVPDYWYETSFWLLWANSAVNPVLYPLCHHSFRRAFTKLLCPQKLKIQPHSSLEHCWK

[4] = molecular target: T5, Adenosine receptor A1 (Homo sapiens) (UniProt P30542); experiment: Displacement of [3H]CCPA from human recombinant adenosine A1 receptor expressed in CHO cells at 1 uM by liquid scintillation counting analysis; type: cell-based
T5 sequence (whole entry): T1 sequence (P30542 whole entry)

[5] = molecular target: T6, Adenosine receptor A2b (Homo sapiens) (UniProt P29275); experiment: Displacement of [3H]PSB-603 from human recombinant adenosine A2B receptor expressed in CHO cells at 1 uM by liquid scintillation counting analysis; type: cell-based
T6 sequence (whole entry): T4 sequence (P29275 whole entry)

Adenosine receptor A2a [6] = molecular target: T2, Adenosine receptor A2a; experiment: Displacement of [3H]MSX-2 from human recombinant adenosine A2A receptor expressed in CHO cells at 1 uM by liquid scintillation counting analysis; type: cell-based
[7] = molecular target: T7, Adenosine receptor A3 (Homo sapiens) (UniProt P0DMS8); experiment: Displacement of [3H]PSB-11 from human recombinant adenosine A3 receptor expressed in CHO cells at 1 uM by liquid scintillation counting analysis; type: cell-based
T7 sequence (whole entry): T3 sequence (P0DMS8 whole entry)

Adenosine receptor A1 [8] = molecular target: T1, Adenosine receptor A1; experiment: Binding affinity to human recombinant adenosine A1 receptor expressed in CHO cells using [3H]CCPA by functional activity assay; type: cell-based
Adenosine receptor A2b [9] = molecular target: T4, Adenosine receptor A2b; experiment: Binding affinity to human recombinant adenosine A2B receptor expressed in CHO cells using [3H]PSB-603 by functional activity assay; type: cell-based
SH-SY5Y = experiment: Cytotoxicity against human SH-SY5Y cells assessed as remaining cell viability at 1000 nM incubated for 24 hrs; type: functional

Nc1nc(-c2ccccc2)c2c(n1)-c1cc(OCCCN3CCCC3)ccc1C2=O
Ki (Adenosine receptor A1 [1]): 12.6 nM | Ki (Adenosine receptor A2a [2]): 6.24 nM | Ki (Adenosine receptor A3): 199 nM | Ki (Adenosine receptor A2b [3]): 47.5 nM | Ki (Histamine H3 receptor): 17 nM

COCCOc1ccc(N2CCN(CCn3ncc4c3nc(N)n3nc(-c5ccco5)nc43)CC2)cc1 [PRELADENANT]
Ki (Adenosine receptor A3): > 1000 nM | Ki (Adenosine receptor A2b [3]): > 1000 nM

O=C(c1ccc(OCCCN2CCCCC2)cc1)C1CC1
Ki (Adenosine receptor A1 [1]): > 1000 nM | inhibition [4]: -5% | inhibition [5]: 0% | inhibition (Adenosine receptor A2a [6]): -3% | Ki (Adenosine receptor A2a [2]): > 1000 nM | Ki (Adenosine receptor A3): > 1000 nM | Ki (Adenosine receptor A2b [3]): > 1000 nM | inhibition [7]: -2%

O=C(c1ccc(OCCCc2cnc[nH]2)cc1)C1CC1 [CIPROXIFAN]
Ki (Adenosine receptor A1 [1]): > 1000 nM | Ki (Adenosine receptor A2a [2]): > 1000 nM | Ki (Adenosine receptor A3): > 1000 nM | Ki (Adenosine receptor A2b [3]): > 1000 nM

Nc1nc(-c2ccc(OCCCN3CCCCC3)cc2)c2c(n1)-c1ccccc1C2=O
Ki (Adenosine receptor A1 [1]): 133 nM | Ki (Adenosine receptor A2a [2]): 35.5 nM | Ki (Adenosine receptor A3): > 1000 nM | Ki (Adenosine receptor A2b [3]): 331 nM | Ki (Histamine H3 receptor): 0.28 nM | inhibition [7]: 33%

Nc1nc(-c2ccccc2)c2c(n1)-c1cc(OCCN3CCOCC3)ccc1C2=O
EC50 (Adenosine receptor A1 [8]): 48 nM | Ki (Adenosine receptor A3): 430 nM | EC50 (Adenosine receptor A2b [9]): 230 nM

Nc1nc(-c2ccccc2)c2c(n1)-c1cc(OCCCN3CCCCC3)ccc1C2
Ki (Adenosine receptor A1 [1]): 18.7 nM | Ki (Adenosine receptor A2a [2]): 4.85 nM | Ki (Adenosine receptor A3): 231 nM | Ki (Adenosine receptor A2b [3]): 58.1 nM | Activity (SH-SY5Y): >75% | Ki (Histamine H3 receptor): 4.5 nM

Nc1nc(-c2ccccc2)c2c(n1)-c1ccc(OCCCN3CCCCC3)cc1C2
Ki (Adenosine receptor A1 [1]): > 1000 nM | inhibition [4]: 24% | inhibition [5]: 34% | inhibition (Adenosine receptor A2a [6]): 34% | Ki (Adenosine receptor A2a [2]): > 1000 nM | Ki (Adenosine receptor A3): > 1000 nM | Ki (Adenosine receptor A2b [3]): > 1000 nM | Ki (Histamine H3 receptor): 2.3 nM | inhibition [7]: 39%
